In the supplement of paper PMC10331698:
± gives the standard deviation of the averaged measurements.

Experiments:
Assay in all cases: level (log10 ratio to DMSO vehicle control); higher = higher biomarker level / cell amount than vehicle control
Conditions in all cases: in DMSO
[1] = compound: OCC(F)(F)C(F)(F)C(F)(F)C(F)(F)C(F)(F)C(F)F [1H,1H,7H-Dodecafluoro-1-heptanol]
Description: (§1)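 BioMAP Diversity Plus panel of 12 human primary cell co-culture systems (3C, 4H, LPS, SAg, BT, BF4T, BE3C, CASM3C, HDF3CGF, KF3CT, MyoF, Mphg). Compounds were added 1 h before stimulation and left for 24 h (MyoF 48 h; BT 72 h for soluble read-outs or 6 d for IgG). Biomarkers were read by ELISA, cytotoxicity by SRB, PBMC viability and proliferation by Alamar Blue. Each well value was divided by the mean of 8 DMSO control wells on the same plate and log10 transformed; duplicate blinded samples were tested at 4 concentrations.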

Azathioprine = compound: Cn1cnc([N+](=O)[O-])c1Sc1ncnc2[nH]cnc12 [Azathioprine]
Description: as §1

Perfluorooctanamidine = compound: N=C(N)C(F)(F)C(F)(F)C(F)(F)C(F)(F)C(F)(F)C(F)(F)C(F)(F)F [Perfluorooctanamidine]
Description: as §1

[2] = compound: O=C(O)C(F)(F)C(F)(F)C(F)(F)C(F)(F)C(F)(F)C(F)(F)C(F)(F)C(F)(F)C(F)(F)C(F)(F)C(F)(F)C(F)(F)C(F)(F)F [Perfluorotetradecanoic acid]
Description: as §1

[3] = compound: O=C(O)C(F)(F)C(F)(F)C(F)(F)C(F)(F)C(F)(F)C(F)(F)C(F)(F)C(F)(F)Cl [9-Chloro-perfluorononanoic acid]
Description: as §1

[4] = compound: O=S(=O)(O)C(F)(F)C(F)(F)C(F)(F)C(F)(F)F [Perfluorobutanesulfonic acid]
Description: as §1

[5] = compound: C=CC(=O)OCCC(F)(F)C(F)(F)C(F)(F)C(F)(F)F [2-(Perfluorobutyl)ethyl acrylate]
Description: as §1

Test System | level (log10) ([1]; 6700 nM) | level (log10) ([1]; 20000 nM) | level (log10) ([1]; 60000 nM) | level (log10) (Azathioprine; 1400 nM) | level (log10) (Azathioprine; 4200 nM) | level (log10) (Azathioprine; 13000 nM) | level (log10) (Azathioprine; 38000 nM) | level (log10) (Perfluorooctanamidine; 6700 nM) | level (log10) (Perfluorooctanamidine; 20000 nM) | level (log10) (Perfluorooctanamidine; 60000 nM) | level (log10) ([2]; 6700 nM) | level (log10) ([2]; 20000 nM) | level (log10) ([3]; 6700 nM) | level (log10) ([3]; 20000 nM) | level (log10) ([4]; 6700 nM) | level (log10) ([4]; 20000 nM) | level (log10) ([4]; 60000 nM) | level (log10) ([5]; 6700 nM) | level (log10) ([5]; 20000 nM) | level (log10) ([5]; 60000 nM)
LPS:IL-1alpha | -0.006 ± 0.0042 | -0.031 ± 0.02 | 0.0025 ± 0.046 | 0.0405 ± 0.067 | 0.04 ± 0.064 | 0.0165 ± 0.0064 | -0.0185 ± 0.00071 | 0.011 ± 0.024 | -0.0095 ± 0.049 | -0.003 | -0.031 ± 0.071 | -0.045 ± 0.09 | 0.038 ± 0.017 | 0.025 ± 0.021 | -0.0445 ± 0.067 | -0.0235 ± 0.013 | -0.0265 ± 0.05 | 0.009 ± 0.023 | 0.031 ± 0.013 | 0.02 ± 0.021
4H:CCL2/MCP-1 | -0.0365 ± 0.016 | -0.028 ± 0.0085 | 0.0135 ± 0.093 | 0.018 ± 0.096 | 0.0255 ± 0.04 | -0.035 ± 0.1 | 0.0055 ± 0.042 | 0.0095 ± 0.011 | -0.0055 ± 0.0064 | 0.061 | -0.031 ± 0.0057 | 0.0115 ± 0.019 | -0.001 ± 0.014 | -0.0245 ± 0.0035 | -0.021 ± 0.0042 | -0.0095 ± 0.023 | -0.017 ± 0.018 | -0.0405 ± 0.028 | -0.043 ± 0.037 | 0.009 ± 0.11
LPS:CD69 | -0.002 ± 0.096 | -0.0005 ± 0.076 | 0.0005 ± 0.079 | -0.0175 ± 0.00071 | -0.046 ± 0.0014 | -0.0345 ± 0.033 | -0.073 ± 0.04 | -0.025 ± 0.045 | -0.0395 ± 0.04 | -0.132 | -0.012 ± 0.025 | -0.027 ± 0.068 | -0.0335 ± 0.026 | -0.063 ± 0.028 | -0.0405 ± 0.061 | 0.0155 ± 0.05 | 0.0825 ± 0.023 | -0.0225 ± 0.015 | -0.017 ± 0.041 | -0.049 ± 0.041
BT:sIL-17F | -0.104 ± 0.2 | -0.0695 ± 0.07 | -0.061 ± 0.064 | -0.0825 ± 0.079 | -0.041 ± 0.12 | -0.092 ± 0.054 | -0.254 ± 0.025 | -0.0225 ± 0.071 | -0.209 ± 0.023 | -0.112 | -0.019 ± 0.058 | -0.0085 ± 0.028 | -0.0055 ± 0.074 | 0.011 ± 0.024 | 0.008 ± 0.0057 | 0.0145 ± 0.04 | -0.0225 ± 0.0064 | -0.169 ± 0.0071 | -0.393 ± 0.017 | -0.673 ± 0.061
BT:PBMC Cytotoxicity | -0.0155 ± 0.0021 | -0.016 ± 0.013 | -0.049 ± 0.0028 | 0.002 ± 0.023 | 0.002 ± 0.018 | -0.054 ± 0.017 | -0.085 ± 0.04 | 0.005 | 0 ± 0.031 | 0.006 | -0.01 ± 0.0042 | 0.0305 ± 0.059 | 0.015 ± 0.028 | 0.0355 ± 0.015 | 0.03 ± 0.044 | 0.039 ± 0.027 | 0.057 ± 0.0057 | -0.028 ± 0.0014 | -0.073 ± 0.018 | -0.251 ± 0.057
SAg:CCL2/MCP-1 | 0.0005 ± 0.005 | -0.0035 ± 0.00071 | 0.0225 ± 0.029 | -0.004 ± 0.017 | -0.0275 ± 0.0064 | -0.054 ± 0.011 | -0.112 ± 0.056 | -0.004 ± 0.0014 | 0.0225 ± 0.005 | -0.015 | -0.021 ± 0.0057 | -0.0185 ± 0.0064 | 0.017 ± 0.021 | -0.0055 ± 0.005 | -0.0225 ± 0.0092 | -0.0075 ± 0.0064 | 0.0185 ± 0.033 | -0.0205 ± 0.012 | -0.083 ± 0.0057 | -0.141 ± 0.035
BE3C:CXCL10/IP-10 | 0.0055 ± 0.028 | 0.004 ± 0.021 | 0.0125 ± 0.012 | 0.0015 ± 0.028 | 0.0115 ± 0.028 | 0.001 ± 0.024 | 0.001 ± 0.0085 | 0.0045 ± 0.023 | -0.0055 ± 0.0035 | 0.003 | 0.008 ± 0.0042 | -0.0275 ± 0.019 | -0.0545 ± 0.015 | -0.462 ± 0.011 | 0.009 ± 0.038 | -0.0015 ± 0.028 | 0.0005 ± 0.018 | -0.0025 ± 0.00071 | -0.007 ± 0.0057 | -0.012 ± 0.013
LPS:M-CSF | 0.0025 ± 0.00071 | 0.0075 ± 0.0035 | 0.01 ± 0.038 | -0.011 ± 0.025 | -0.024 ± 0.018 | -0.0475 ± 0.056 | -0.125 ± 0.0042 | -0.0045 ± 0.0078 | -0.011 ± 0.03 | -0.068 | -0.0435 ± 0.0021 | -0.0695 ± 0.037 | -0.0125 ± 0.0078 | 0.0485 ± 0.047 | 0.021 ± 0.016 | -0.0035 ± 0.00071 | 0.01 ± 0.014 | -0.0115 ± 0.0021 | -0.0085 ± 0.011 | -0.052 ± 0.085
LPS:sPGE2 | -0.0455 ± 0.066 | -0.0115 ± 0.016 | -0.011 ± 0.0057 | -0.0075 ± 0.033 | 0.037 | -0.022 ± 0.018 | -0.0985 ± 0.03 | -0.019 ± 0.031 | -0.078 ± 0.031 | -0.06 | 0.0005 ± 0.011 | 0.0255 ± 0.019 | 0.0175 ± 0.0092 | -0.0895 ± 0.0078 | 0.0595 ± 0.011 | 0.041 ± 0.051 | 0.0355 ± 0.043 | -0.0675 ± 0.022 | -0.099 ± 0.0085 | -0.101 ± 0.021
4H:SRB | -0.0055 ± 0.028 | -0.0215 ± 0.012 | -0.0075 ± 0.029 | -0.0135 ± 0.0092 | -0.0075 ± 0.005 | -0.015 ± 0.0085 | -0.0485 ± 0.019 | 0.0035 ± 0.0021 | -0.006 ± 0.0071 | -0.029 | -0.014 ± 0.028 | -0.0155 ± 0.063 | -0.0015 ± 0.00071 | -0.0055 ± 0.0035 | 0.0005 ± 0.0064 | 0.002 ± 0.0028 | 0 ± 0.0099 | -0.003 ± 0.0085 | 0.0105 ± 0.021 | -0.0205 ± 0.016
BF4T:CD106/VCAM-1 | -0.0065 ± 0.039 | -0.0035 ± 0.013 | 0.011 ± 0.031 | -0.0185 ± 0.015 | -0.026 ± 0.025 | -0.038 | -0.139 ± 0.016 | 0.0325 ± 0.0092 | 0.018 ± 0.052 | 0.021 | -0.011 ± 0.014 | -0.037 ± 0.031 | -0.0485 ± 0.005 | -0.141 ± 0.011 | -0.0175 ± 0.0078 | -0.0325 ± 0.046 | -0.021 ± 0.0028 | 0.005 ± 0.0042 | -0.033 ± 0.025 | -0.08 ± 0.0028
BF4T:MMP-9 | -0.0055 ± 0.03 | -0.011 ± 0.027 | 0.0095 ± 0.046 | 0.0365 ± 0.087 | -0.001 ± 0.04 | 0.004 ± 0.021 | 0.0215 ± 0.023 | -0.006 ± 0.0057 | -0.0115 ± 0.013 | 0.053 | -0.0165 ± 0.047 | 0 ± 0.035 | -0.0395 ± 0.036 | -0.0715 ± 0.019 | -0.004 ± 0.0014 | -0.0065 ± 0.028 | -0.013 ± 0.02 | -0.0015 ± 0.035 | -0.006 ± 0.057 | -0.013 ± 0.058
BF4T:SRB | -0.007 ± 0.0028 | -0.01 | -0.0005 ± 0.005 | 0.016 ± 0.014 | -0.0045 ± 0.0092 | -0.0025 ± 0.0021 | -0.005 ± 0.0028 | -0.009 ± 0.0071 | -0.0085 ± 0.0035 | -0.004 | 0.0025 ± 0.0092 | 0.001 ± 0.0071 | -0.013 ± 0.0071 | -0.0555 ± 0.0064 | -0.006 ± 0.0099 | -0.0085 ± 0.005 | -0.009 ± 0.0028 | -0.003 ± 0.0014 | -0.005 | -0.0085 ± 0.0021
